Drawing on PubChem BioAssay AID1259408 (Genetic Toxicology Data Bank (GENE-TOX), 2018), this text covers mutagenic call and call for six molecules.

The subject of this data set is GENE-TOX genotoxicity assays, various organisms and cells. As to the kind of experiment: GENE-TOX mutagenicity studies. The conditions noted are these: for call: Assay Type: In vivo carcinogenicity studies. The text has this: GENE-TOX provides genetic toxicology (mutagenicity) test data from expert peer review of open scientific literature for more than 3,000 chemicals from the United States Environmental Protection Agency (EPA). GENE-TOX was established to select assay systems for evaluation, review data in the scientific literature, and recommend proper testing protocols and evaluation procedures for these systems.
GENE-TOX covers the years 1991 - 1998. It is no longer updated.
This is an archive assay for GENE-TOX mutagenicity studies.

The mark [1] stands for this setting: Species/Cell Type: Drosophila melanogaster, Assay Type: Sex-linked recessive lethal gene mutation, Assay Code: SRLT, Evaluation Type: Evaluation A (Pre-1980).
The mark [2] stands for this setting: Species/Cell Type: Salmonella typhimurium (one or more of the five standard strains: TA98, TA100, TA1535, TA1537, and TA1538), Assay Type: Histidine reverse gene mutation, Ames assay, Assay Code: SAL-, Evaluation Type: Evaluation A (Pre-1980).
[3] abbreviates: Species/Cell Type: Allium cepa, Assay Type: Chromosome aberrations, Assay Code: ALC+D, Dose Response: With dose response, Evaluation Type: Evaluation A (Pre-1980).
The mark [4] stands for this setting: Species/Cell Type: Syrian hamster embryo (SHE) cells, Assay Type: Cell transformation, clonal assay, Assay Code: CTC-, Evaluation Type: Evaluation A (Pre-1980).
[5] abbreviates: Species/Cell Type: Human lymphocytes, Assay Type: Sister-chromatid exchange (SCE) in vitro, Assay Code: SCLT, Evaluation Type: Evaluation B (Post-1980).
Where [6] appears, read: Species/Cell Type: Human, Assay Type: Sister-chromatid exchange (SCE) in vitro, Assay Code: SC1T, Evaluation Type: Evaluation B (Post-1980).

The source made the active and inactive calls. The rule behind the calls is not given here.

`ClC(Cl)=C(c1ccc(Cl)cc1)c1ccc(Cl)cc1`: the mutagenic call is, setting by setting: (Species/Cell Type: Chinese hamster lung (V79) cells, Assay Type: Forward gene mutation at the HPRT or ouabain locus, Assay Code: V79+, Evaluation Type: Evaluation A (Pre-1980)) “active; positive”; under setting [1], “no conclusion”; (Species/Cell Type: Escherichia coli polA (W3119 vs P3478), Assay Type: Rec-assay, DNA effects (bacterial DNA repair), Assay Code: RE1T, Evaluation Type: Evaluation A (Pre-1980)) “no conclusion”; (Species/Cell Type: Mouse lymphoma (L5178Y) cells, Assay Type: Forward gene mutation at the thymidine kinase (TK) locus, chromosome aberrations, Assay Code: L51+/-*, Activation: With metabolic activation, Evaluation Type: Evaluation A (Pre-1980)) “inactive; positive without activation, negative with activation”; (Species/Cell Type: Nonhuman, Assay Type: Chromosome aberrations in vitro, Assay Code: CY&+, Evaluation Type: Evaluation A (Pre-1980)) “active; positive”; (Species/Cell Type: Saccharomyces cerevisiae, Assay Type: Mitotic recombination or gene conversion, Assay Code: YEH-, Evaluation Type: Evaluation A (Pre-1980)) “inactive; negative”. Also, the mutagenic call by setting is: under setting [2], “inactive; negative”; (Species/Cell Type: Salmonella typhimurium, Serratia marcesens, Assay Type: Forward and reverse gene mutation, host-mediated assay, Assay Code: HM2-, Evaluation Type: Evaluation A (Pre-1980)) “inactive; negative”. Besides, under “Species/Cell Type: Nonhuman, Assay Code: CCG+L, Evaluation Type: Evaluation A (Pre-1980)”, the call is “active; positive”.
With `NO`, the mutagenic call by setting is: under setting [3], “active; positive”; (Species/Cell Type: Arabidopsis species, Assay Type: Gene mutation, Assay Code: ARM-, Evaluation Type: Evaluation A (Pre-1980)) “inactive; negative”; (Species/Cell Type: Drosophila melanogaster, Assay Type: Aneuploidy, sex chromosome gain, chromosome aberrations, Assay Code: DAGT, Evaluation Type: Evaluation A (Pre-1980)) “no conclusion”; (Species/Cell Type: Drosophila melanogaster, Assay Type: Aneuploidy, whole sex chromosome loss, chromosome aberrations, Assay Code: DAC-M, Evaluation Type: Evaluation A (Pre-1980)) “inactive; negative”; under setting [1], “no conclusion”; (Species/Cell Type: Escherichia coli polA (W3119 vs P3478), Assay Type: Rec-assay, DNA effects (bacterial DNA repair), Assay Code: RE1+, Evaluation Type: Evaluation A (Pre-1980)) “active; positive”. Also, the mutagenic call was “active; positive” (Species/Cell Type: Fischer rat embryo (RLV/1706) cells, Assay Type: Cell transformation, viral enhanced, Assay Code: CTR+, Evaluation Type: Evaluation A (Pre-1980)); “inactive; negative” (Species/Cell Type: Glycine max (soybean), Assay Type: Gene mutation, Assay Code: GLM-, Evaluation Type: Evaluation A (Pre-1980)); “inactive; negative” (Species/Cell Type: Human diploid fibroblasts, Assay Type: Unscheduled DNA synthesis (UDS) in vitro, DNA effects, Assay Code: UDH-, Evaluation Type: Evaluation A (Pre-1980)); “inactive; negative” (Species/Cell Type: Human lymphocytes or leukocytes, Assay Type: Chromosome aberrations in vitro, Assay Code: CY7-, Evaluation Type: Evaluation A (Pre-1980)); “inactive; negative” (Species/Cell Type: Mouse (BALB/c-3T3) cells, Assay Type: Cell transformation, Assay Code: CTB-, Evaluation Type: Evaluation A (Pre-1980)); “active; positive” (Species/Cell Type: Neurospora crassa, Assay Type: Forward gene mutation, Assay Code: NEF+, Evaluation Type: Evaluation A (Pre-1980)). Besides, the mutagenic call (Species/Cell Type: Nonhuman, Assay Type: Sister-chromatid exchange (SCE) in vitro, Assay Code: SC2+D, Dose Response: With dose response, Evaluation Type: Evaluation B (Post-1980)) is “active; positive”; the mutagenic call (Species/Cell Type: Saccharomyces cerevisiae, Assay Type: Forward gene mutation, Assay Code: YEF+, Evaluation Type: Evaluation A (Pre-1980)) is “active; positive”; the mutagenic call (Species/Cell Type: Saccharomyces cerevisiae, Assay Type: Mitotic recombination or gene conversion, Assay Code: YEH+, Evaluation Type: Evaluation A (Pre-1980)) is “active; positive”; the mutagenic call under setting [2] is “inactive; negative”; the mutagenic call (Species/Cell Type: Schizosaccharomyces pombe, Assay Type: Forward gene mutation, Assay Code: YEY+, Evaluation Type: Evaluation A (Pre-1980)) was “active; positive”; the mutagenic call under setting [4] is “inactive; negative”. Also, under “Species/Cell Type: Vicia faba, Assay Type: Chromosome aberrations, Assay Code: VIC+, Evaluation Type: Evaluation A (Pre-1980)”, the mutagenic call was “active; positive”. In addition, where the note is “Species/Cell Type: Nonhuman, Assay Code: CCGT, Evaluation Type: Evaluation A (Pre-1980)”, the call is “no conclusion”.
For the molecule `Nc1ccc2c(n1)[nH]c1ccccc12`, the mutagenic call (Species/Cell Type: Human, Assay Type: Sister-chromatid exchange (SCE) in vitro, Assay Code: SC1+D*, Activation: With metabolic activation, Dose Response: With dose response, Evaluation Type: Evaluation B (Post-1980)) was “active; positive”.
`C[C@@H]1[C@H](O)[C@@H](C)/C=C/C=C/C=C/C=C/C=C/C=C/C=C/[C@H](O[C@@H]2O[C@H](C)[C@@H](O)[C@H](N)[C@@H]2O)C[C@@H]2O[C@](O)(C[C@@H](O)C[C@@H](O)[C@H](O)CC[C@@H](O)C[C@@H](O)CC(=O)O[C@H]1C)C[C@H](O)[C@H]2C(=O)O`: the mutagenic call (Species/Cell Type: Aspergillus nidulans, Assay Type: Aneuploidy, chromosome aberrations, Assay Code: ASN+, Evaluation Type: Evaluation A (Pre-1980)) is “active; positive”.
Turning to `O=C1NS(=O)(=O)c2ccccc21`, the mutagenic call runs as follows: under setting [3], “active; positive”; (Species/Cell Type: Drosophila melanogaster, Assay Type: Sex-linked recessive lethal gene mutation, Assay Code: SRL+, Evaluation Type: Evaluation A (Pre-1980)) “active; positive”; (Species/Cell Type: Drosophila melanogaster, Sex: Male, Assay Type: Heritable translocation test, chromosome aberrations, Assay Code: DHTT, Evaluation Type: Evaluation A (Pre-1980)) “no conclusion”; (Species/Cell Type: Escherichia coli polA (W3110 vs P3478), Assay Type: Rec-assay, DNA effects (bacterial DNA repair), Assay Code: RE2-, Evaluation Type: Evaluation A (Pre-1980)) “inactive; negative”; (Species/Cell Type: Escherichia coli polA (W3119 vs P3478), Assay Type: Rec-assay, DNA effects (bacterial DNA repair), Assay Code: RE1-, Evaluation Type: Evaluation A (Pre-1980)) “inactive; negative”; (Species/Cell Type: Human lymphocytes, Assay Type: Sister-chromatid exchange (SCE) in vitro, Assay Code: SCL+D, Dose Response: With dose response, Evaluation Type: Evaluation A (Pre-1980)) “active; positive”. Besides, the mutagenic call is, setting by setting: under setting [5], “no conclusion”; (Species/Cell Type: Human, Assay Type: Sister-chromatid exchange (SCE) in vitro, Assay Code: SC1+D, Dose Response: With dose response, Evaluation Type: Evaluation A (Pre-1980)) “active; positive”; under setting [6], “no conclusion”; (Species/Cell Type: Mammalian polychromatic erythrocytes, Assay Type: Micronucleus test, chromosome aberrations, Assay Code: MNTT, Evaluation Type: Evaluation B (Post-1980)) “no conclusion”; (Species/Cell Type: Mouse (C3H/10T1/2) cells, Assay Type: Cell transformation, Assay Code: CTH-, Evaluation Type: Evaluation A (Pre-1980)) “inactive; negative”; (Species/Cell Type: Mouse lymphoma (L5178Y) cells, Assay Type: Forward gene mutation at the thymidine kinase (TK) locus, chromosome aberrations, Assay Code: L51T, Evaluation Type: Evaluation A (Pre-1980)) “no conclusion”. Also, the mutagenic call runs as follows: (Species/Cell Type: Mouse, Sex: Male, Assay Type: Sperm morphology, Assay Code: SPI-, Evaluation Type: Evaluation A (Pre-1980)) “inactive; negative”; (Species/Cell Type: Neurospora crassa, Assay Type: Aneuploidy, chromosome aberrations, Assay Code: NEN-, Evaluation Type: Evaluation A (Pre-1980)) “inactive; negative”; (Species/Cell Type: Nonhuman, Assay Type: Sister-chromatid exchange (SCE) in vitro, Assay Code: SC2+D, Dose Response: With dose response, Evaluation Type: Evaluation A (Pre-1980)) “active; positive”; (Species/Cell Type: Nonhuman, Assay Type: Sister-chromatid exchange (SCE) in vivo, Assay Code: SC3+D, Dose Response: With dose response, Evaluation Type: Evaluation B (Post-1980)) “active; positive”; (Species/Cell Type: Rodents, Sex: Male, Assay Type: Dominant lethal test, Assay Code: DLT+, Evaluation Type: Evaluation A (Pre-1980)) “active; positive”; (Species/Cell Type: Saccharomyces cerevisiae, Assay Type: Aneuploidy, chromosome aberrations, Assay Code: YEN+, Evaluation Type: Evaluation A (Pre-1980)) “active; positive”. Besides, the mutagenic call runs as follows: (Species/Cell Type: Saccharomyces cerevisiae, Assay Type: Mitotic recombination or gene conversion, Assay Code: YEC+, Evaluation Type: Evaluation A (Pre-1980)) “active; positive”; (Species/Cell Type: Saccharomyces cerevisiae, Assay Type: Mitotic recombination or gene conversion, Assay Code: YEH+/-*, Activation: With metabolic activation, Evaluation Type: Evaluation A (Pre-1980)) “inactive; positive without activation, negative with activation”; (Species/Cell Type: Saccharomyces cerevisiae, Assay Type: Reverse gene mutation, Assay Code: YER+, Evaluation Type: Evaluation A (Pre-1980)) “active; positive”; under setting [2], “inactive; negative”; (Species/Cell Type: Salmonella typhimurium, Assay Type: Forward and reverse gene mutation, body fluid assay, Assay Code: BFU+, Evaluation Type: Evaluation A (Pre-1980)) “active; positive”; (Species/Cell Type: Salmonella typhimurium, Assay Type: Forward and reverse gene mutation, host-mediated assay, Assay Code: HMA+, Evaluation Type: Evaluation A (Pre-1980)) “active; positive”. In addition, the mutagenic call under setting [4] was “inactive; negative”.
Turning to `CCc1ccccc1O`, the mutagenic call under setting [5] is given as “no conclusion” and the mutagenic call under setting [6] is “no conclusion”.
